In paper PMC11418212, “Characterization of four structurally diverse inhibitors of SUR2-containing KATP channels” (Channels, 2024):
“And” between values parts separate entries of the source, which are not always exact repeats. Equal values may be shown once.

Assays:
Assay in all cases: Kir family selectivity thallium flux assay
Type in all cases: cell-based
Kir2.1 = molecular target: T1, Kir2.1 (Homo sapiens, UniProt P63252)
T1 construct: expressed in transfected cells
T1 sequence (P63252 1-427): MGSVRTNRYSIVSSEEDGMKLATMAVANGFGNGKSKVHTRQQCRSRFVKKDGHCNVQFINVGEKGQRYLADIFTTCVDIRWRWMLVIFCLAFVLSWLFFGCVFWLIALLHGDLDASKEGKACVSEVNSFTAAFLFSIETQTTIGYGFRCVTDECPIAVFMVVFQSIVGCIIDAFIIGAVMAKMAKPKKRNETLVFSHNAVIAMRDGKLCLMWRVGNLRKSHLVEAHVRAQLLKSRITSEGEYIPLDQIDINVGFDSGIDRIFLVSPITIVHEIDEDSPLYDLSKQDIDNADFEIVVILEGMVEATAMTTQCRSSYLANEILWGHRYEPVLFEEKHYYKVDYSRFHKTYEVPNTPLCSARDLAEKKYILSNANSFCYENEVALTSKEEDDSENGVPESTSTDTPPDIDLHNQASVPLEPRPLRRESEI
Protocol: (§1) Thallium flux assays were conducted using the established methods. Stably transfected T-REx-HEK-293 cells expressing Kir6.2/SUR1 or Kir6.1/SUR2B were cultured overnight in polyamine-coated plates (black-walled, clear-bottomed; BD, Bedford, MA) at a density of 20,000 cells in 20 µl per well of cell culture media. The expression of Kir6.2/SUR1 or Kir6.1/SUR2B channels was induced by treating cells with 1 µg/ml tetracycline overnight. The following day, cells were rinsed with an assay buffer (Hanks’ Balanced Salt Solution supplied with 20 mM HEPES), loaded with the thallium-sensor dye Brilliant Thallos-AM AM (Ion Bioscience, San Marcos, TX) for 1 h, and then washed again with assay buffer to remove unincorporated dye. The cell plate was subsequently placed in a Panoptic Kinetic Imaging Plate Reader (Wavefront Bioscience, Franklin, TN) and imaged at a frequency of 1 Hz using 482/35 nm (excitation) and 536/40 nm (emission) filter sets. Kir6.1/SUR2B channels were activated with 10 µM pinacidil, whereas Kir6.1/SUR1 was activated with 30 µM VU0071063 [34]. To activate KATP channels independent of activators with ATP-depletion method, cells were treated with a cocktail of metabolic inhibitors (2.5 mM sodium cyanide and 20 mM 2-deoxy glucose) for 25 min before imagine. Control and test compounds diluted freshly from DMSO stocks into assay buffer were added to wells for four minutes before adding 0.5 mM chloride-free thallium stimulus buffer (Ion Bioscience) to initiate thallium flux through the expressed KATP channels. Thallium flux was recorded from all 384-wells for 2 min before terminating the experiment. […] Selectivity assays against other Kir channels were performed as described previously.
(§2) To begin elucidating the binding site location of VU0212387, VU0543336, VU0605768, and VU0544086, we evaluated the activity of the inhibitors against KATP channels composed of different Kir and SUR subunit combinations expressed in HEK293 cells. Specifically, the compounds were tested against Kir6.1/SUR1, Kir6.2/SUR1, Kir6.1/SUR2A, Kir6.2/SUR2A, Kir6.1/SUR2B, and Kir6.2/SUR2B at a dose of 3 µM. […] We expanded the selectivity analysis to include 10 other members of the Kir channel family.

Kir1.1 = molecular target: T2, Kir1.1 (Homo sapiens, UniProt P48048)
T2 construct: expressed in transfected cells
T2 sequence (P48048 1-391): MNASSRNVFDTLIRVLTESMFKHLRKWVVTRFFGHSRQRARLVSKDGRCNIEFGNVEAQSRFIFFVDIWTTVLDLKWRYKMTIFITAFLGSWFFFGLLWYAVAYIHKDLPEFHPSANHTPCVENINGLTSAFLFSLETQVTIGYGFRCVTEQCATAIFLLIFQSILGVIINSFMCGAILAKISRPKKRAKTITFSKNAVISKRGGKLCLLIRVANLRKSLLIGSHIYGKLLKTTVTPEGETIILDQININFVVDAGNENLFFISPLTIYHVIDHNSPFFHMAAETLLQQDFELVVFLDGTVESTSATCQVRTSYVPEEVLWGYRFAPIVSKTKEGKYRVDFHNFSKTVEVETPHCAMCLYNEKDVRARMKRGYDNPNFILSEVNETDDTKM
Protocol: as §1, §2

Kir4.2 = molecular target: T3, Kir4.2 (Homo sapiens, UniProt Q99712); details: for inhibition at 30 µM: observed at 30 µM, read-out: Percent maximal inhibition of Kir4.2; for IC50: thallium flux
T3 construct: expressed in transfected cells
T3 sequence (Q99712 1-375): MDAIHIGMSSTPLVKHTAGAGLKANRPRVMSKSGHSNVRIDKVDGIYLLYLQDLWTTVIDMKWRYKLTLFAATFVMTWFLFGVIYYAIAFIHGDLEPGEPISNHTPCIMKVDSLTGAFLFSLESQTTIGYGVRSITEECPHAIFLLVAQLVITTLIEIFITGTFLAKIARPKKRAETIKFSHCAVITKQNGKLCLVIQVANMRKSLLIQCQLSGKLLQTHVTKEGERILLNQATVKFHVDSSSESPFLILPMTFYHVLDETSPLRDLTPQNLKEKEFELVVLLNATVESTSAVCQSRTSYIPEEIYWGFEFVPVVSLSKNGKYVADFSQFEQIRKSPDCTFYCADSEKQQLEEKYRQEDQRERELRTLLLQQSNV
Protocol: as §1, §2

Kir7.1 (M125R) = molecular target: T4, Kir7.1 (M125R) (Homo sapiens, UniProt O60928, M125R); details: for IC50: thallium flux
T4 construct: expressed in transfected cells
T4 sequence (O60928 1-360 M125R): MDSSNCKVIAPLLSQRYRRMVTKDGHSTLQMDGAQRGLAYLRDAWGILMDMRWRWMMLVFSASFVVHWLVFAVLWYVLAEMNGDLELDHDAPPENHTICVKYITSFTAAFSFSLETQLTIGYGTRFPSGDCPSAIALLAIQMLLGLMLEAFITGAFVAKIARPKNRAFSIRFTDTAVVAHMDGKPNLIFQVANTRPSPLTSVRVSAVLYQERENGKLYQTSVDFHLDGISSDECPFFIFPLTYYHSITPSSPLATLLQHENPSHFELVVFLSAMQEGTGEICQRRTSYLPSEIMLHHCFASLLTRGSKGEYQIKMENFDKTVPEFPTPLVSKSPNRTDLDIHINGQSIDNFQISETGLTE
Protocol: as §1, §2

Question: Which IC50 (Kir2.1) does the source give for `O=C(NCC(O)(c1ccccc1)C(F)(F)F)c1ccc(OC(F)(F)F)cc1` (stereo not shown) [VU0543336, N-(3,3,3-trifluoro-2-hydroxy-2-phenylpropyl)-4-(trifluoromethoxy)benzamide] here?
Answer: > 30 µM

Question: What about the IC50 (Kir1.1) of the same molecule?
Answer: > 30 µM

Question: What about the inhibition at 30 µM (Kir4.2) of the same molecule?
Answer: 110%

Question: What about the IC50 (Kir4.2) of the same molecule?
Answer: 12 µM and 11.8 µM

Question: What about the IC50 (Kir7.1 (M125R)) of the same molecule?
Answer: > 30 µM

Question: How did the IC50 (Kir2.1) turn out when `O=C(NCc1cc(-c2ccncc2)n(C2CCCC2)n1)Nc1cccs1` [VU0544086, 1-((1-cyclopentyl-5-(pyridin-4-yl)-1 H-pyrazol-3-yl)methyl)-3-(thiophen-2-yl)urea] was run?
Answer: > 30 µM

Question: What about the IC50 (Kir1.1) of the same molecule?
Answer: > 30 µM

Question: And the IC50 (Kir4.2)?
Answer: > 30 µM

Question: And the IC50 (Kir7.1 (M125R))?
Answer: > 30 µM

Question: Which results are given for `O=C1c2oc3ccccc3c(=O)c2C(c2cccc(Br)c2)N1CCO` (stereo not shown) [VU0605768, 1-(3-bromophenyl)-2-(2-hydroxyethyl)-1,2-dihydrochromeno[2,3-c]pyrrole-3,9-dione]?
Answer: IC50 (Kir2.1): > 30 µM; IC50 (Kir1.1): > 30 µM; IC50 (Kir4.2): > 30 µM; IC50 (Kir7.1 (M125R)): > 30 µM

Question: How did the IC50 (Kir2.1) turn out when `c1ccc2[nH]c(CSc3ncnc4c3oc3ccccc34)nc2c1` [VU0212387, 4-(((1 H-benzo[d]imidazol-2-yl)methyl)thio)benzofuro[3,2-d]pyrimidine] was run?
Answer: > 30 µM

Question: What about the IC50 (Kir1.1) of the same molecule?
Answer: > 30 µM

Question: And the inhibition at 30 µM (Kir4.2)?
Answer: 56%

Question: And the IC50 (Kir4.2)?
Answer: 17 µM and 17.1 µM

Question: What about the inhibition at 30 µM (Kir7.1 (M125R); observed at 30 µM, read-out: Percent maximal inhibition of Kir7.1 (M125R)) of the same molecule?
Answer: 69%

Question: And the IC50 (Kir7.1 (M125R))?
Answer: 12 µM and 12.3 µM
